Results published in ChEMBL document CHEMBL3588847, “1,5-Diarylpyrazole and vanillin hybrids: Synthesis, biological activity and DFT studies” (Eur J Med Chem, 2015).
Active and inactive are the calls of the source. The calls are words filed in the database; no cut-off is given here.

What was measured:
[1] = Antioxidant activity assessed as DPPH radical scavenging activity; type: physicochemical
[2] = Antioxidant activity assessed as DPPH radical scavenging activity at 20 µg/ml; type: physicochemical
[3] = Antioxidant activity assessed as DPPH radical scavenging activity at […]; type: physicochemical
[4] = Antioxidant activity assessed as AAPH radical scavenging activity by measuring Trolox equivalents after 90 mins by fluorescein probe based ORAC assay; type: physicochemical; conditions: 1.5 h
Rattus norvegicus [5] = test: Hypoglycemic effect in Wistar rat model of streptozotocin-induced type-2 diabetes mellitus assessed as reduction in blood glucose level at 50 mg/kg, ig after 7 hrs; type: functional; conditions: po
[6] = Antioxidant activity assessed as DPPH radical scavenging activity at 20 mg/ml; type: physicochemical
Rattus norvegicus [7] = test: Hypoglycemic effect in Wistar rat model of streptozotocin-induced type-2 diabetes mellitus assessed as reduction in blood glucose level at 5 mg/kg, ig after 7 hrs; type: functional, organism-based

Row | EC50 [1] [mM] | Activity [4] [g⁻¹] | SMILES | other results
1 | 2.07 | – | O=C1O[C@H]([C@@H](O)CO)C(O)=C1O [ASCORBIC ACID] | –
2 | – | – | COc1cc(C=O)ccc1O [VANILLIN] | inhibition (INH) [2]: 7%; inhibition (INH) [3]: 75%
3 | 6.45 | – | COc1cc(/C=N/NC(=O)c2nn(-c3ccnc4cc(Cl)ccc34)c(-c3ccc(F)cc3)c2C)ccc1O | –
4 | 2.6 | 432 | COc1cc(/C=N/NC(=O)c2nn(-c3ccc(Cl)c(Cl)c3)c(-c3ccc(Cl)cc3)c2C)ccc1O | inhibition in vivo at 50 mg/kg (Rattus norvegicus [5]): 33.3%
5 | – | – | Cc1c(C(=O)O)nn(-c2ccc(Cl)cc2Cl)c1-c1ccc(Cl)cc1 | inhibition (INH) [6]: 17%
6 | – | – | COc1ccc(Cl)cc1C(=O)NCCc1ccc(S(=O)(=O)NC(=O)NC2CCCCC2)cc1 | Activity (Rattus norvegicus [7]): Active
7 | 2.99 | 1076 | COc1cc(/C=N/NC(=O)c2nn(-c3ccc(Cl)cc3Cl)c(-c3ccccc3)c2C)ccc1O | inhibition in vivo at 50 mg/kg (Rattus norvegicus [5]): 26.6%
8 | 2.91 | – | COc1cc(/C=N/NC(=O)c2nn(-c3ccc(C(F)(F)F)cc3)c(-c3ccc(Br)cc3)c2C)ccc1O | –
9 | 4.24 | 401 | COc1cc(/C=N/NC(=O)c2nn(-c3ccc(Cl)cc3Cl)c(-c3ccc(C(F)(F)F)cc3)c2C)ccc1O | inhibition in vivo at 50 mg/kg (Rattus norvegicus [5]): 35.3%
10 | 3.54 | 891 | COc1cc(/C=N/NC(=O)c2nn(-c3ccc(F)cc3F)c(-c3ccc(F)cc3)c2C)ccc1O | –
11 | 2.46 | 611 | COc1cc(/C=N/NC(=O)c2nn(-c3ccccc3)c(-c3ccccc3)c2C)ccc1O | –
12 | 6.92 | 525 | COc1cc(/C=N/NC(=O)c2nn(-c3ccc(F)c(Cl)c3)c(-c3ccc(F)cc3)c2C)ccc1O | –
13 | 4.59 | – | COc1cc(/C=N/NC(=O)c2nn(-c3ccnc4cc(Cl)ccc34)c(-c3ccc(Cl)cc3)c2C)ccc1O | –
14 | 3.56 | 882 | COc1cc(/C=N/NC(=O)c2nn(-c3ccc(F)c(Cl)c3)c(-c3ccc(Cl)cc3)c2C)ccc1O | –
15 | 3.55 | 634 | COc1cc(/C=N/NC(=O)c2nn(-c3ccc(Cl)cc3Cl)c(-c3ccc(Cl)cc3)c2C)ccc1O | inhibition in vivo at 50 mg/kg (Rattus norvegicus [5]): 64.9%
16 | 2.34 | 867 | COc1cc(/C=N/NC(=O)c2nn(-c3ccc(C(F)(F)F)cc3)c(-c3ccc(Cl)cc3)c2C)ccc1O | –
17 | 65.8 | 2979 | COc1cc(C(=O)O)ccc1O [VANILLIC ACID] | –
18 | 2.9 | 993 | COc1cc(/C=N/NC(=O)c2nn(-c3ccc(F)cc3F)c(-c3ccc(C(F)(F)F)cc3)c2C)ccc1O | –
